According to patent US7485326B2, “Oral microemulsion composition comprising biphenyldimethyldicarboxylate and silybin” (Hanmi Pharm Co., Ltd., priority 2003, dated 2009):

Key:
liver damaged by CCl4 = assay: Therapeutic effect on the liver damaged by carbon tetrachloride (Test Example 1); format: in vivo, Sprague Dawley rats; conditions: serum
Protocol: The therapeutic effect of the inventive oral microemulsion composition on the liver damaged by CCl4 was examined as follows.
Thirty-six 4 to 5-week old male Sprague Dawley rats were divided into six groups each consisting of 6 rats having an average body weight of 202±5g. The rats were acclimated to the cage environment set at 23±2° C. and 55±5% relative humidity. Then 50% (v/v) solution of carbon tetrachloride in corn oil was intraperitoneally administered to each rat of five experimental groups (Groups 1 to 5) at a dose of 0.75 ml/kg, twice a week (monday and friday) to induce hepatotoxicity.
The rats of Group 1 (negative control) were not treated with any therapeutic drug after the CCl4 injection. The rats of Group 2 (positive control) were orally administered with BDD suspended in 1% (w/v) CMC (carboxymethyl cellulose) once a day, six times a week after the CCl4 injection, in an amount corresponding to 25 mg/kg of BDD; the rats of Group 3, with a Carduus marianus extract suspended in 1% (w/v) CMC, in an amount corresponding to 175 mg/kg of the Carduus marianus extract (52.5 mg/kg as silybin); and the rats of Group 4, with a simple mixture of BDD and Carduus marianus extract suspended in 1% (w/v) CMC, in an amount corresponding to 25 mg/kg of BDD and 175 mg/kg of the Carduus marianus extract. The rats of Group 5 were orally administered with the formulation of Example 3 once a day, six times a week, in an amount corresponding to 3 mg/kg of BDD and 175 mg/kg of the Carduus marianusextract; and the rats of Group 6 (normal group) were not subjected to CCl4injection and no therapeutic drugs were administered thereto.
Four weeks after the administration, the rats were sacrificed and serum samples were taken according to a preset schedule. The serum ALT (alanine aminotransferase) and AST (aspartate aminotransferase) levels were measured in accordance with a conventional method, and the results are shown in Tables 1 and 2, respectively.

[1] = tested on: fatty liver induced by dl-ethionine; assay: Therapeutic effect on the dl-ethionine-induced fatty liver (Test Example 3); format: in vivo, Sprague Dawley rats
Protocol: In order to examine the therapeutic effect of the inventive oral microemulsion composition, a test to measure the activity of restoring fatty liver induced by dl-ethionine was conducted as follows.
Six groups of rats, each consisting of 6 rats were prepared by the procedure of Test Example 1. A 2% (w/v) dl-ethionine saline solution was subcutaneously injected to each rat of five experimental groups (Groups 1 to 5) at a dosage of 200 mg/kg, twice a week to induce fatty liver.
The rats of Group 1 (negative control) were not treated with any therapeutic drug after the ethionine injection. The rats of Group 2 (positive control) were orally administered with BDD suspended in 1% (w/v) CMC once a day, five times a week after the ethionine injection, in an amount corresponding to 25 mg/kg of BDD; the rats of Group 3, with the Carduus marianus extract suspended in 1% (w/v) CMC, in an amount corresponding to 175 mg/kg of the Carduus marianus extract (52.5 mg/kg as silybin); and the rats of Group 4, with a simple mixture of BDD and Carduus marianusextract suspended in 1% (w/v) CMC, in an amount corresponding to 25mg/kg of BDD and 175 mg/kg of the Carduus marianus extract. The rats of Group 5 were orally administered with the formulation of Example 3 once a day, five times a week, in an amount corresponding to 3 mg/kg of BDD and 175 mg/kg of the Carduus marianus extract; and the rats of Group 6 (normal group) received neither ethionine injection nor any therapeutic drug.
One week after the administration, each rat was sacrificed, and the liver was extracted therefrom. The extracted liver was washed with saline, soaked in a 4-fold volume of potassium phosphate buffer (pH 7.5), and homogenized with a teflone-glass homogenizer. The homogenized liver was subjected to centrifugation at 600×g for 10 minutes to obtain a supernatant, which was subjected to centrifugations at 10,000×g for 20minutes, and then at […], to obtain a supernatant.
Then, the total cholesterol and triglyceride levels of each liver sample were measured by employing the supernatant in accordance with a conventional method, and the results are shown in Tables 5 and 6, respectively.

[2] = CCl4-treated rats, oral once a day six times a week, four weeks, BDD 25 mg/kg, extract 175 mg/kg, Example 3: 3 mg/kg BDD + 175 mg/kg extract
[3] = versus CCl4 control Group 1, four weeks
[4] = dl-ethionine-treated rats, oral once a day five times a week, one week, BDD 25 mg/kg, extract 175 mg/kg, Example 3: 3 mg/kg BDD + 175 mg/kg extract
[5] = versus ethionine control Group 1, one week

COC(=O)c1cc(OC)c2c(c1-c1c(C(=O)OC)cc(OC)c3c1OCO3)OCO2 [BDD, biphenyldimethyldicarboxylate]
ALT (average concentration ± standard deviation) (liver damaged by CCl4; [2]): 137.7 ± 19.5 SF U/ml
AST (average concentration ± standard deviation) (liver damaged by CCl4; [2]): 163.3 ± 4.5 SF U/ml
Ratio of ALT level to a control (liver damaged by CCl4; [3]): 91.7%
Ratio of AST level to a control (liver damaged by CCl4; [3]): 95.2%
Total Cholesterol (average concentration ± standard deviation) [1, 4]: 22.0 ± 1.9 mg/g
Triglyceride (average concentration ± standard deviation) [1, 4]: 10.1 ± 0.5 mg/g
Ratio of cholesterol level to a control [1, 5]: 91.3%
Ratio of triglylceride level to a control [1, 5]: 72.7%
